Laboratory results published in patent US20110251238A1, “PPAR AGONIST COMPOSITIONS AND METHODS OF USE” (BIOPHARMED, priority 2008, published 2011).
Each block holds one compound with its values, some of them ahead of it.

What was measured:
[1] = test system: KB3 (epitheloid lung cancer) cell lines; test: Cell growth inhibition (cytotoxicity), MTS assay, KB3 cell line; type: cell-based; conditions: KB3; Table 3B; MTS assay, triplicate; read-out: KB3 IC50
Method: Cell growth inhibition was determined by the MTS assay; the number of viable cells were proportional to the extent of formazan production in the presence or absence of drugs. […]

[2] = test system: bloodstream forms of T. congolense STIB910; conditions: T. congolense STIB910, identical experimental conditions, Merschjohann et al. (2001); cited from earlier work
[3] = test system: bloodstream forms of T. brucei 427-221a; conditions: identical experimental conditions, Merschjohann et al. (2001); cited from earlier work

melting point: 149 to 152 °C
Compound: CC(C)(C)OC(=O)N(Cc1cc(C(F)(F)F)cc(C(F)(F)F)c1)Cc1ccc(O)c2ncccc12 [BPM19,190, Tert-butyl-3,5-bis(trifluoromethyl)benzyl((8-hydroxyquinolin-5-yl)methyl)carbamate]
IC50 [1]: 1000 nM

Compound: N=C(N)c1ccc(N=NNc2ccc(C(=N)N)cc2)cc1 [diminazene aceturate]
IC50 [2]: 500 nM

Compound: Cc1ccc(C(=O)Nc2ccc(S(=O)(=O)O)c3cc(S(=O)(=O)O)cc(S(=O)(=O)O)c23)cc1NC(=O)c1cccc(NC(=O)Nc2cccc(C(=O)Nc3cc(C(=O)Nc4ccc(S(=O)(=O)O)c5cc(S(=O)(=O)O)cc(S(=O)(=O)O)c45)ccc3C)c2)c1 [suramin]
IC50 [3]: 400 nM
